What was measured:
[1] = test system: HepG2 cells; assay: Measurement of glucose production in cell culture; type: cell-based, human
Description: The glucose level of HBV transgenic mice was measured using a kit of DRI-CHEM SLIDE GLU-PIII (FUJIFILM, JAPAN). Ten microliters of mouse serum was deposited on a FUJI DRI-CHEM SLIDE GLU-PIII. Glucose oxidase (GOD) catalyzes the oxidization of sample glucose to generate hydrogen peroxide which then reacts with dye precursors and forms red dye. The optical reflection density was measured at 505 nm by the FUJI DRI-CHEM analyzer and converted into the glucose concentration […]. For the measurement of glucose concentration in cell culture, HBV producing cells (HepG2 and Q7 cells) were treated with PPARγ antagonist, GW9662 at indicated concentrations. Twenty-four hours before glucose measurement, the medium was replaced with 1 ml of glucose-free DMEM, supplemented with 2 mM sodium pyruvate. After 16 hrs incubation, 50 μl of medium was collected and the glucose concentration (mM) was measured using the glucose colorimetric assay (Biovision).

[2] = test system: HBV; assay: HBV DNA replication after cotransfection/treatment, Southern blot; type: cell-based, hepatitis B virus (HBV ayw)
Text: The methods to construct the miRNA expression vectors are as detailed elsewhere. Chen, H. L. et al. PloS one 7, e34116 (2012). PCR products were sub-cloned from TA cloning vector (RBC) to pSuper (OligoEngine, Inc) by Hind III digestion. All plasmids were confirmed by sequencing. Approximately 8-400 fold higher level of microRNA expression was detected by transfection and stem loop RT-PCR analysis. […] The PPARγ and PGC1α expression vectors were from GeneCopoeia.
Human hepatoma Huh7 and HepG2 cells were maintained as described previously Chua, P. K., et al. Journal of virology 84, 2340-2351 (2010), Le Pogam, S., et al., Journal of virology 79, 1871-1887 (2005). In general, the phenotype of viral replication and the effect of microRNA are stronger in HepG2 than Huh7 cells. However, Huh7 cells are easier to passage and transfect. Therefore, we used these two cell lines interchangeably.
Rosiglitazone and GW9662 were from Sigma. HepG2 and Huh7 cells were seeded in 6-well tissue culture plates at 5×10, Quasdorff, M. et al. Journal of viral hepatitis 17, 527-536 (2010) cells/well. At 24 h post-transfection, Rosiglitazone or GW9662 in 0.1% DMSO was added to medium. Culture medium was changed ever two days before harvest.
HBV core particle-associated DNA, total cellular cytoplasmic RNA, and microRNA were analyzed by Northern blot as described previously. […]

[3] = test system: HBV core protein (HBc), surface antigen (HBsAg) and e antigen (HBeAg); assay: HBV protein expression (HBc Western blot; HBsAg, HBeAg ELISA); type: cell-based, hepatitis B virus (HBV ayw)
Text: (§1) Anti-HBc (Dako), anti-PPARγ (Santa Cruz), anti-GAPDH, anti-PKLR, anti-G6Pase, anti-tubulin, anti-PGC1α (Origene), anti-PCK1 (Abnova), anti-GCK (Biovision), Secondary antibodies include mouse anti-rabbit-HRP, goat anti-mouse-HRP (GeneTex, Taiwan) and donkey anti-goat-HRP (Santa Cruz).
Chua, P. K., et al. Journal of virology 84, 2340-2351 (2010),

[4] = test system: HBV enhancer II; assay: HBV enhancer/promoter luciferase reporter assay; type: cell-based, hepatitis B virus; details: Huh7 cells, pGL3/enhII reporter
Text: (§2) Assay for 3′ UTR or enhancer/promoter was as described previously. Chen, H. L., et al., PloS one 7, e34116 (2012).

[5] = test system: HBV 3′ UTR (nt 1521-2122); assay: 3′ UTR luciferase reporter assay with HBV nt 1521-2122; type: cell-based, hepatitis B virus (HBV ayw); details: Huh7 cells, cotransfection with miRNA expression vector
Text: as §2

[6] = test system: SP1, PPAR α, CEBPb, and HNF4; assay: Expression of other hepatic transcription factors in miR-130a expressing cell lines; type: cell-based, human
Description: (§3) Briefly, 2 μg of total RNA was reverse transcribed into cDNA using random primers and High Capacity cDNA Reverse Transcription kit (Applied Biosystem) at 37° C. for 120 minutes. The cDNA product was then diluted 100 times for real-time PCR analysis using Power SYBR Green PCR master mix (Applied Biosystem), and the default condition in a 20 μl reaction volume by Applied Biosystems 7500 Real-Time PCR System. Data were analyzed by relative quantification methods (ΔΔCt methods) using 7500 software V2.0.1.
(§4) Approximately one million Huh7 and HepG2 cells were transiently transfected by 3 μg plasmid DNA (pSuper and pSuper-miR-130a) with Polyjet (SignaGen), followed by G418 selection for three weeks. The G418-resistant colonies were pooled together.

[7] = test system: HBV pregenomic RNA (pgRNA); assay: HBV RNA in transfected cells, Northern blot; type: cell-based, hepatitis B virus (HBV ayw); details: HepG2, total cytoplasmic RNA of cotransfected culture
Description: HBV core particle-associated DNA, total cellular cytoplasmic RNA, and microRNA were analyzed by Northern blot as described previously. Chua, P. K., et al. Journal of virology 84, 2340-2351 (2010), Le Pogam, S., et al., Journal of virology 79, 1871-1887 (2005).

[8] = test system: glucokinase (GCK); assay: GCK expression in stable miR-130a expressing cells; type: cell-based, human
Description: as §1, §3, §4

[9] = test system: 3′ UTR of PGC1α; assay: 3′UTR luciferase reporter assay, PGC1α; type: cell-based, human; details: reporter cotransfection assay
Text: as §2
(§5) An upstream fragment of the miR-130a precursor (−750 to −1 nt), containing putative binding sites for NF-κB/p65, Egr-1, and CREB, was amplified by PCR from human HepG2 genomic DNA. The PCR products were separated by agarose gel electrophoresis, and the isolated DNA fragments were then cloned into the restriction enzyme digested pGL3 Basic Vector (Promega, Madison, Wis.) containing a firefly luciferase reporter (New England Biolab, Ipswich, Mass.). Various promoter deletion plasmids, containing shorter fragments upstream from the miR-130a precursor, were derived from the full-length promoter plasmid by PCR amplification and cloning using various PCR primers (Table 1 above). All the promoter plasmids were confirmed by sequencing. HuH-7 cells were transfected with promoter deletion plasmids for 48 hrs and firefly luciferase activities were then measured and normalized to each cotransfected renilla luciferase level. The full-length 3′UTRs of PPARγ, PGC1α and SP1 were amplified from genomic DNA of HepG2 cells using their respective forward and reverse primers (Table 1), and cloned into a psiCHECK-2 luciferase vector (Promega, Madison, Wis.) (Shih, C. et al. Virology 179, 871-873 (1990)). […]

[10] = test system: 3′ UTR of PPARγ; assay: 3′UTR luciferase reporter assay, PPARγ; type: cell-based, human; details: reporter cotransfection assay
Text: as §2, §5

[11] = test system: NF-κB/p65; assay: NF-κB/p65 protein level, Western blot; type: cell-based, human; details: stable miR-130a expressing HepG2 cells
[12] = HBV-transfected Huh7 cells, increasing concentration of compound

Molecule	glucose level ([1]; HepG2 cells treated with GW9662 (20 uM), irrespective of HBV-producing status)	HBV replication [2, 12]	HBV protein expression (secreted HBsAg and HBeAg) [3, 12]	luciferase activity driven by HBV enhancer-II [4]	glucose level ([1]; control versus miR-130a producing cells)	HBV DNA replication ([2]; HepG2 cells cotransfected with HBV DNA, Southern blot)	luciferase activity, wild type HBV 3′UTR reporter [5]	HBV protein expression (HBc, HBsAg, HBeAg) ([3]; HepG2 cells)	secretion of HBsAg and HBeAg ([3]; media of HepG2 cotransfected with HBV DNA, ELISA)	expression levels of most hepatic transcription factors examined [6]	level of HBV pregenomic RNA (pgRNA) [7]	GCK mRNA expression ([8]; miR-130a expressing hepatocytes, RT-qPCR)	GCK protein expression ([8]; stable miR-130a expressing HepG2 or Huh7 cells, Western blot)	luciferase activity, reporter with 3′UTR of PGC1α [9]	luciferase activity, reporter with 3′UTR of PPARγ [10]	NF-κB/p65 protein level [11]
O=C(Nc1ccccc1)c1cc([N+](=O)[O-])ccc1Cl [GW9662, reference compound]	further increased	significantly reduced	significantly reduced	–	–	–	–	–	–	–	–	–	–	–	–	–
miR-130a: human microRNA, CAGUGCAAUGUUAAAAGGGCAU (SEQ ID NO:1); given as pSuper expression vector or stable expression	–	–	–	reduced the luciferase activity driven by HBV enhancer-II	No significant difference in glucose level	inhibits HBV DNA replication	no appreciable effect	reduce HBV protein expression	reduces the secretion of HBsAg and HBeAg	remained unchanged	reduced the level of HBV pregenomic RNA	increased mRNA expression	not reduced but increased	significantly reduced the luciferase activity	significantly reduced the luciferase activity	increased significantly
